Patent US20170253601A1, “Substituted Pyrrolidine Compounds” (EPIZYME, INC., priority 2014, published 2017)

Target: T1, SMYD2 (Homo sapiens, UniProt Q9NRG4)
T1 construct: Full length SMYD2 (NP 064582.2) was cloned; His6 (N, cleaved yes); FLAG (N); made in house; host or cells: Sf9 insect cells
Assay: SMYD2 Biochemical Assay (3H-SAM, biotinylated peptide substrate, Flashplate)
Settings: Table 2; average of n = 1 to n = 50; read-out: SMYD2 Biochem IC50
Source text: S-adenosylmethionine (SAM), S-adenosylhomocysteine (SAH), bicine, Tween20, dimethylsulfoxide (DMSO), bovine skin gelatin (BSG), and Tris(2-carboxyethyl)phosphine hydrochloride (TCEP) were purchased from Sigma-Aldrich at the highest level of purity possible. ^3H-SAM was purchase from American Radiolabeled Chemicals with a specific activity of 80 Ci/mmol. 384-well streptavidin Flashplates were purchased from PerkinElmer.
Peptide was synthesized with a N-terminal linker-affinity tag motif and a C-terminal amide cap by 21st Century Biochemicals. The peptide was high-performance liquid chromatography (HPLC) purified to greater than 95% purity and confirmed by liquid chromatography mass spectrometry (LC-MS). The sequence was […](K-Biot)-amide. (SEQ ID No: 3)
Full length SMYD2 (NP 064582.2) was cloned into a pFastbac-Htb-lic vector with an N-terminal His6 tag and FLAG tag, preceded by a TEV protease cleavage site. The protein was expressed in Sf9 insect cells. Cells were resuspended in lysis buffer (25 mM HEPES-NaOH, pH 7.5, 200 mM NaCl, 5% glycerol, and 5 mM β-ME) and lysed by sonication. The protein was purified by Ni-NTA (Qiagen), followed by TEV cleavage to remove the His6 tag, subtractive Ni-NTA (Qiagen), and gel filtration chromatography using an […] (GE Healthcare). Purified protein was stored in 20 mM Tris-HCl, pH 8.0, 100 mM NaCl, and 1 mM TCEP.
The assays were all performed in a buffer consisting of 20 mM Bicine (pH=7.6), 1 mM TCEP, 0.005% Bovine Skin Gelatin, and 0.002% Tween20, prepared on the day of use. Compounds in 100% DMSO (1 ul) were spotted into a polypropylene 384-well V-bottom plates (Greiner) using a Platemate Plus outfitted with a 384-channel head (Thermo Scientific). DMSO (1 ul) was added to Columns 11, 12, 23, 24, rows A-H for the maximum signal control and 1 ul of SAH, a known product and inhibitor of SMYD2, was added to columns 11, 12, 23, 24, rows I-P for the minimum signal control. A cocktail (40 ul) containing the SMYD2 enzyme was added by Multidrop Combi (Thermo-Fisher). The compounds were allowed to incubate with SMYD2 for 30 min at room temperature, then a cocktail (10 ul) containing ^3H-SAM and peptide was added to initiate the reaction (final volume=51 ul). The final concentrations of the components were as follows: SMYD2 was 1.5 nM, ^3H-SAM was 10 nM, and peptide was 60 nM, SAH in the minimum signal control wells was 1000 uM, and the DMSO concentration was 2%. The assays were stopped by the addition of non-radioactive SAM (10 ul) to a final concentration of 600 uM, which dilutes the ^3H-SAM to a level where its incorporation into the peptide substrate is no longer detectable. 50 ul of the reaction in the 384-well polypropylene plate was then transferred to a 384-well Flashplate and the biotinylated peptides were allowed to bind to the streptavidin surface for at least 1 hour before being washed three times with 0.1% Tween20 in a Biotek ELx405 plate washer. The plates were then read in a PerkinElmer TopCount plate reader to measure the quantity of ^3H-labeled peptide bound to the Flashplate surface, measured as disintegrations per minute (dpm) or alternatively, referred to as counts per minute (cpm).
Where dpm=disintegrations per minute, cmpd=signal in assay well, and min and max are the respective minimum and maximum signal controls.
Where top and bottom are the normally allowed to float, but may be fixed at 100 or 0 respectively in a 3-parameter fit. The Hill Coefficient normally allowed to float but may also be fixed at 1 in a 3-parameter fit. I is the compound concentration.
SMYD2 biochemical assay data for representative Compounds of the Disclosure are presented in Tables 1-3 in the column titled “SMYD2 Biochem IC50 (μM).”

T1 sequence (Q9NRG4 whole entry): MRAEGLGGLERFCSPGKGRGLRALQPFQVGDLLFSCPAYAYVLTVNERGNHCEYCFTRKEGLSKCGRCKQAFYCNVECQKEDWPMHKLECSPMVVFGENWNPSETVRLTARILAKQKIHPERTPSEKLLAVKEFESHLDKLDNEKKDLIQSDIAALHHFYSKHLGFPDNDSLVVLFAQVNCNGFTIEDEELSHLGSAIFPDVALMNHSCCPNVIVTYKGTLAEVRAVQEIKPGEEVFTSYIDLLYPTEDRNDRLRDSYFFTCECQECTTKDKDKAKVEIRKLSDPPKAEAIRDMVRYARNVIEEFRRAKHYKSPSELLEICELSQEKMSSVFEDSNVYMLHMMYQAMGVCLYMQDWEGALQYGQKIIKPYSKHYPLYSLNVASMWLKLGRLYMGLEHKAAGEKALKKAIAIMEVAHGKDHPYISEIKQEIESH

IC50 [µM]	Compound
27.5	C[C@H]1CN(CCN)C[C@H]1NC(=O)c1cc(C2CC2)on1 (racemic) [compound 78, (±)-cis-N-(1-(2-aminoethyl)-4-methylpyrrolidin-3-yl)-5-cyclopropylisoxazole-3-carboxamide]
30.5	C[C@@H]1CN(C2CCN(C(=O)OC(C)(C)C)CC2)C[C@@H]1NC(=O)c1cc(C2CC2)on1 (racemic) [compound 80, (±)-cis-tert-butyl 4-(3-(5-cyclopropylisoxazole-3-carboxamido)-4-methylpyrrolidin-1-yl)piperidine-1-carboxylate]
> 50	C[C@@H]1CN(C2CCNCC2)C[C@@H]1NC(=O)c1cc(C2CC2)on1 (racemic) [compound 81, (±)-cis-5-cyclopropyl-N-(4-methyl-1-(piperidin-4-yl)pyrrolidin-3-yl)isoxazole-3-carboxamide]
> 50	C[C@@H]1CN(C2CCN(C)CC2)C[C@@H]1NC(=O)c1cc(C2CC2)on1 (racemic) [compound 82, (±)-cis-5-cyclopropyl-N-(4-methyl-1-(1-methylpiperidin-4-yl)pyrrolidin-3-yl)isoxazole-3-carboxamide]
> 50	CC(=O)N1CCC(N2C[C@@H](C)[C@@H](NC(=O)c3cc(C4CC4)on3)C2)CC1 (racemic) [compound 83, (±)-cis-N-(1-(1-acetylpiperidin-4-yl)-4-methylpyrrolidin-3-yl)-5-cyclopropylisoxazole-3-carboxamide]
> 50	C[C@@H]1CN(Cc2cccnc2)C[C@H]1NC(=O)c1cc(C2CC2)on1 (racemic) [compound 84, (±)-trans-5-cyclopropyl-N-(4-methyl-1-(pyridin-3-ylmethyl)pyrrolidin-3-yl)isoxazole-3-carboxamide]
> 50	C[C@@H]1CN(Cc2ccncc2)C[C@H]1NC(=O)c1cc(C2CC2)on1 (racemic) [compound 85, (±)-trans-5-cyclopropyl-N-(4-methyl-1-(pyridin-4-ylmethyl)pyrrolidin-3-yl)isoxazole-3-carboxamide]
> 50	C[C@@H]1CN(Cc2ccccn2)C[C@H]1NC(=O)c1cc(C2CC2)on1 (racemic) [compound 87, (±)-trans-5-cyclopropyl-N-(4-methyl-1-(pyridin-2-ylmethyl)pyrrolidin-3-yl)isoxazole-3-carboxamide]
34.2	CCN1C[C@@H](C)[C@H](NC(=O)c2cc(C3CC3)on2)C1 (racemic) [compound 88, (±)-trans-5-cyclopropyl-N-(1-ethyl-4-methylpyrrolidin-3-yl)isoxazole-3-carboxamide]
> 50	CC(=O)N1C[C@@H](C)[C@H](NC(=O)c2cc(C3CC3)on2)C1 (racemic) [compound 89, (±)-trans-N-(1-acetyl-4-methylpyrrolidin-3-yl)-5-cyclopropylisoxazole-3-carboxamide]
> 50	C[C@@H]1CN(S(C)(=O)=O)C[C@H]1NC(=O)c1cc(C2CC2)on1 (racemic) [compound 90, (±)-trans-5-cyclopropyl-N-(4-methyl-1-(methylsulfonyl)pyrrolidin-3-yl)isoxazole-3-carboxamide]
> 50	C[C@H]1CN(S(=O)(=O)C2CCNCC2)C[C@@H]1NC(=O)c1cc(C2CC2)on1 (racemic) [compound 91, (±)-trans-5-cyclopropyl-N-(4-methyl-1-(piperidin-4-ylsulfonyl)pyrrolidin-3-yl)isoxazole-3-carboxamide]
> 50	C[C@H]1CN(C(=O)CN)C[C@@H]1NC(=O)c1cc(C2CC2)on1 (racemic) [compound 92, (±)-trans-5-cyclopropyl-N-(1-glycyl-4-methylpyrrolidin-3-yl)isoxazole-3-carboxamide]
> 50	C[C@H]1CN(C(=O)CO)C[C@@H]1NC(=O)c1cc(C2CC2)on1 (racemic) [compound 93, (±)-trans-5-cyclopropyl-N-(1-(2-hydroxyacetyl)-4-methylpyrrolidin-3-yl)isoxazole-3-carboxamide]
> 50	C[C@@H]1CN(C(=O)C2CCNCC2)C[C@H]1NC(=O)c1cc(C2CC2)on1 (racemic) [compound 94, (±)-trans-5-cyclopropyl-N-(4-methyl-1-(piperidine-4-carbonyl)pyrrolidin-3-yl)isoxazole-3-carboxamide]
> 50	C[C@H]1CN(C(=O)CC2CCNCC2)C[C@@H]1NC(=O)c1cc(C2CC2)on1 (racemic) [compound 95, (±)-trans-5-cyclopropyl-N-(4-methyl-1-(2-(piperidin-4-yl)acetyl)pyrrolidin-3-yl)isoxazole-3-carboxamide]
> 50	C[C@@H]1CN(C2CCCCC2)C[C@H]1NC(=O)c1cc(C2CC2)on1 (racemic) [compound 96, (±)-trans-N-(1-cyclohexyl-4-methylpyrrolidin-3-yl)-5-cyclopropylisoxazole-3-carboxamide]
> 50	C[C@@H]1CN(C2CCOCC2)C[C@H]1NC(=O)c1cc(C2CC2)on1 (racemic) [compound 97, (±)-trans-5-cyclopropyl-N-(4-methyl-1-(tetrahydro-2H-pyran-4-yl)pyrrolidin-3-yl)isoxazole-3-carboxamide]
48.7	C[C@@H]1CN(C2CCCC2)C[C@H]1NC(=O)c1cc(C2CC2)on1 (racemic) [compound 99, (±)-trans-N-(1-cyclopentyl-4-methylpyrrolidin-3-yl)-5-cyclopropylisoxazole-3-carboxamide]
> 50	C[C@@H]1CN(CCS(C)(=O)=O)C[C@H]1NC(=O)c1cc(C2CC2)on1 (racemic) [compound 100, (±)-trans-5-cyclopropyl-N-(4-methyl-1-(2-(methyl-sulfonyl)ethyl)pyrrolidin-3-yl)isoxazole-3-carboxamide]
> 50	C[C@@H]1CN(CCN)C[C@H]1NC(=O)c1cc(C2CC2)on1 (racemic) [compound 101, (±)-trans-N-(1-(2-aminoethyl)-4-methylpyrrolidin-3-yl)-5-cyclopropylisoxazole-3-carboxamide]
> 50	C[C@@H]1CN(C2CCN(C(=O)OC(C)(C)C)CC2)C[C@H]1NC(=O)c1cc(C2CC2)on1 (racemic) [compound 103, (±)-trans-tert-butyl 4-((3S,4R)-3-(5-cyclopropylisoxazole-3-carboxamido)-4-methylpyrrolidin-1-yl)piperidine-1-carboxylate]
> 50	C[C@@H]1CN(C2CCNCC2)C[C@H]1NC(=O)c1cc(C2CC2)on1 (racemic) [compound 104, (±)-trans-5-cyclopropyl-N-((3S,4R)-4-methyl-1-(piperidin-4-yl)pyrrolidin-3-yl)isoxazole-3-carboxamide]
> 50	C[C@@H]1CN(C2CCN(C)CC2)C[C@H]1NC(=O)c1cc(C2CC2)on1 (racemic) [compound 105, (±)-trans-5-cyclopropyl-N-((3S,4R)-4-methyl-1-(1-methylpiperidin-4-yl)pyrrolidin-3-yl)isoxazole-3-carboxamide]
> 50	CC(=O)N1CCC(N2C[C@@H](C)[C@H](NC(=O)c3cc(C4CC4)on3)C2)CC1 (racemic) [compound 106, (±)-trans-N-(1-(1-acetylpiperidin-4-yl)-4-methylpyrrolidin-3-yl)-5-cyclopropylisoxazole-3-carboxamide]
17.7	C[C@H]1CN(Cc2cccnc2)C[C@H]1NC(=O)c1cc(C2CC2)on1 (racemic) [compound 107, (±)-cis-5-cyclopropyl-N-(4-methyl-1-(pyridin-3-ylmethyl)pyrrolidin-3-yl)isoxazole-3-carboxamide]
